Like-named read-outs stand apart in the source and are kept apart here.
Tests used:
Deroceras reticulatum [1] = experiment: Oral toxicity bait test (pellets in petri-dish), percentage control; assay type: in vivo; conditions: 72 h; for mortality at 2 % strength: 2 % active material in bait; for mortality at 4 % strength: read-out: % control
Procedure: The molluscicidal activity of compounds used in the method of the invention was tested using, as a test mollusc, specimens of the adult grey field slug Deroceras reticulatum.
The oral toxicity of the compounds was assessed by presenting slugs with individually prepared experimental baits containing either 4% or 2% active material. These were compared with commercial baits containing 4% methiocarb (Draza) […] 6% metaldehyde (Slugit).
2 test pellets were placed onto a 5 cm filter-paper in the centre of a 9 cm plastic petri-dish. Two adults specimens of the slug Deroceras reticulatum were introduced into each dish and the pellets moistened with a few drops of water to make them attractive to eat. A minimum of the two replicates was used for each compound. Blank baits moistened with an equivalent volume of water were used as controls.
The dishes were then stored in a large glass tank maintained at 12 to 16°C and >95% relative humidity. Assessments of the number of slugs affected were made at intervals up to 3 days after treatment. Slugs were considered to be affected or controlled by the bait if they were incapable of normal body movements and could not right themselves within 2 minutes.
The molluscicidal activity of two compounds specified in European Patent Specification No. 437 784 A1, was tested against slugs, Deroceras reticulatum, using the test method given in Example 1 and bait containing 4% active material in each case. • Comparative A is the compound of Example 2 of EP-A-437 784 • Comparative B is the compound of Example 3 of EP-A-437 784.

D. reticulatum = experiment: Contact test: glass residue test; assay type: in vivo; conditions: Deroceras reticulatum, read-out: % affected D. reticulatum
Procedure: The contact action of Compounds Nos. 1, 3 and 4 was assessed in this Example, using a glass residue test.
The residual toxicity of compounds on glass was investigated by pipetting aliquots of an acetone/Triton X-100 test solution over the base of a 7 cm diameter glass petri-dish to achieve a concentration of 600 ppm. Four adult slugs (D. reticulatum) were introduced into each dish and slug mortality recorded over a 5 day period. Moistened sugar bran mix was provided as food 24 hours after exposure.

[2] = statement of DE-A-4111389; cited from earlier work
slugs = experiment: Systemic activity: lettuce root dip, cut leaves fed to slugs; assay type: in vivo; conditions: root dip 400 ppm
Procedure: The action via systemic application of the Compound Nos. 1, 3 and 4 was assessed in this Example.
Test solutions of the compounds were prepared by dissolving technical samples in 1 ml of acetone and making up to 50 ml with tap water. The roots of young 6 cm high lettuce plants were then washed clean with water and immersed in the test solution for a minimum of two days. For each bioassay individual leaves were cut from a lettuce plant and placed on a filter paper in a 9cm diameter petri-dish. 1 ml of water was pipetted onto each filter paper in order to keep the leaves reasonably moist during the assay. Two medium-sized slugs were introduced into each dish and the amount of leaf eaten and % control of slugs recorded over a two day period. The amount of compound applied as root dips was in the range of from 400 to 1000 ppm over a number of tests.

Arion hortensis = experiment: Bait test against a range of slug species; assay type: in vivo
Procedure: (§1) The action of Compound No. 1 was assessed against a wide range of slug species, and against snails of the genus Cepaea, with bait containing 2%, 4% and 6% active ingredient. The action of a 4% Draza (trade name for a sluggicide sold by Bayer AG and containing the carbamate molluscicide methiocarb) bait was also assessed.
(§2) The slug species utilised in the test were Milax budapestensis , a large slug which is a major pest of potatoes Deroceras reticulatum , grey field slug - a major field crop pest Arion hortensis , garden slug.

Deroceras reticulatum [3] = experiment: Bait test against a range of slug species; assay type: in vivo
Procedure: as §1, §2

Milax budapestensis = experiment: Bait test against a range of slug species; assay type: in vivo
Procedure: as §1, §2

[4] = test system: snails of the genus Cepaea; experiment: Bait test against snails; assay type: in vivo; conditions: bait containing 2%, 4% and 6% active ingredient
Procedure: as §1

[5] = assessments up to 3 days after treatment
[6] = 4 % active material in bait, assessments up to 3 days after treatment
[7] = bait containing 2%, 4% and 6% active ingredient

Structure (SMILES): O=[N+]([O-])C=C1NCCN1Cc1cc(C(F)(F)F)no1 [compound 4]
- mortality at 2 % strength (Deroceras reticulatum [1]; [5]): 100%
- mortality at 600 ppm (D. reticulatum; 24 hours): 25%
- mortality at 600 ppm (D. reticulatum; 48 hours): 0%
- mortality at 600 ppm (D. reticulatum; 120 hours): 25%

Structure (SMILES): O=[N+]([O-])C=C1NCCN1Cc1ccc(F)c(F)c1F [compound 18]
- mortality at 2 % strength (Deroceras reticulatum [1]; [5]): 25%

Structure (SMILES): O=[N+]([O-])C(CSc1ccc(Cl)cc1)=C1NCCN1Cc1cc(Br)no1 [compound 10]
- mortality at 2 % strength (Deroceras reticulatum [1]; [5]): 25%

Structure (SMILES): O=[N+]([O-])C=C1NCCN1Cc1cccc2ccccc12 [compound 20]
- mortality at 2 % strength (Deroceras reticulatum [1]; [5]): 25%

Structure (SMILES): O=[N+]([O-])C=C1NCCN1Cc1ccc(Cl)nc1 [compound 12]
- mortality at 4 % strength (Deroceras reticulatum [1]; [6]): 20%

Structure (SMILES): O=[N+]([O-])C=C1SCCN1Cc1cnc(Cl)c(Cl)c1 [compound 16]
- mortality at 2 % strength (Deroceras reticulatum [1]; [5]): 50%

Structure (SMILES): Cc1ccc(CN2CCNC2=C[N+](=O)[O-])cc1[N+](=O)[O-] [compound 21]
- mortality at 2 % strength (Deroceras reticulatum [1]; [5]): 25%

Structure (SMILES): O=[N+]([O-])N=C1NCCN1Cc1ccc(Cl)nc1 [Compound No. 13, Imidacloprid]
- mortality at 4 % strength (Deroceras reticulatum [1]; [6]): 30%
- molluscicidal effectiveness [2]: only a relatively poorly developed molluscicidal effectiveness

Structure (SMILES): O=[N+]([O-])N=C1NCCN1Cc1cc(Cl)no1 [compound 2]
- mortality at 2 % strength (Deroceras reticulatum [1]; [5]): 50%

Structure (SMILES): C=C(C)CN1CCCNC1=C[N+](=O)[O-] [compound 23]
- mortality at 2 % strength (Deroceras reticulatum [1]; [5]): 25%

Structure (SMILES): O=[N+]([O-])C=C1NCCN1Cc1cc(Cl)no1 [Compound No. 1]
- mortality at 4 % strength (Deroceras reticulatum [1]; [6]): 100%
- systemic activity (slugs): Activity was observed
- mortality at 600 ppm (D. reticulatum; 24 hours): 100%
- mortality at 600 ppm (D. reticulatum; 48 hours): 75%
- mortality at 600 ppm (D. reticulatum; 120 hours): 100%
- effectiveness compared with 4% Draza bait (Arion hortensis; 4% bait): more effective than the 4% Draza bait
- control of slugs (Arion hortensis; [7]): controlled
- effectiveness compared with 4% Draza bait (Deroceras reticulatum [3]; 4% bait): more effective than the 4% Draza bait
- control of slugs (Deroceras reticulatum [3]; [7]): controlled
- effectiveness compared with 4% Draza bait (Milax budapestensis; 4% bait): more effective than the 4% Draza bait
- control of slugs (Milax budapestensis; [7]): controlled
- control of snails [4]: controlled

Structure (SMILES): Cc1cc(CN2CCNC2=C[N+](=O)[O-])on1 [compound 3]
- mortality at 2 % strength (Deroceras reticulatum [1]; [5]): 100%
- systemic activity (slugs): Activity was observed
- mortality at 600 ppm (D. reticulatum; 24 hours): 75%
- mortality at 600 ppm (D. reticulatum; 48 hours): 100%
- mortality at 600 ppm (D. reticulatum; 120 hours): 100%

Structure (SMILES): O=[N+]([O-])N=C1NCCN1Cc1cc(Br)no1 [compound 6]
- mortality at 2 % strength (Deroceras reticulatum [1]; [5]): 25%

Structure (SMILES): Cc1cc(CN2CCSC2=C[N+](=O)[O-])on1 [compound 7]
- mortality at 2 % strength (Deroceras reticulatum [1]; [5]): 100%

Structure (SMILES): O=[N+]([O-])C=C1NCCN1Cc1ccc(C(F)(F)F)cc1 [compound 22]
- mortality at 2 % strength (Deroceras reticulatum [1]; [5]): 50%

Structure (SMILES): O=[N+]([O-])C=C1SCCN1Cc1cc(Cl)no1 [compound 8]
- mortality at 2 % strength (Deroceras reticulatum [1]; [5]): 25%

Structure (SMILES): O=[N+]([O-])N=C1NCCN1Cc1cnc(Cl)c(Cl)c1 [compound 15]
- mortality at 2 % strength (Deroceras reticulatum [1]; [5]): 25%

Structure (SMILES): CNC(=O)Oc1cc(C)c(SC)c(C)c1 [methiocarb, reference compound]
- mortality at 4 % strength (Deroceras reticulatum [1]): 100%

Structure (SMILES): O=[N+]([O-])C=C1NCCN1Cc1cnc(Cl)c(Cl)c1 [compound 14]
- mortality at 4 % strength (Deroceras reticulatum [1]; [6]): 20%

Structure (SMILES): Cc1cc(CN2CCNC2=N[N+](=O)[O-])on1 [compound 11]
- mortality at 2 % strength (Deroceras reticulatum [1]; [5]): 100%

Structure (SMILES): O=[N+]([O-])C(=C1NCCN1Cc1cc(Cl)no1)[N+](=O)[O-] [compound 9]
- mortality at 2 % strength (Deroceras reticulatum [1]; [5]): 50%

Structure (SMILES): Cc1cc(CN2CCCNC2=C[N+](=O)[O-])on1 [compound 24]
- mortality at 2 % strength (Deroceras reticulatum [1]; [5]): 25%

Structure (SMILES): O=[N+]([O-])C=C1NCCN1Cc1cc(Br)no1 [compound 5]
- mortality at 2 % strength (Deroceras reticulatum [1]; [5]): 50%

Structure (SMILES): O=[N+]([O-])C(CSCc1ccccc1)=C1NCCN1c1ccc(Cl)nc1 [compound 17]
- mortality at 2 % strength (Deroceras reticulatum [1]; [5]): 25%

Source: patent publication EP0617893B1, “Molluscicides” (SHELL INTE[…] […] B.V., priority 1993, dated 1994)
